Source: publication PMC6608960 (PLoS ONE, 2019)
Each block holds one molecule with its values, some of them ahead of it. Where a SMILES comes first, the peptide text is derived from it.

How the values were obtained:
[1] = biological target: T1, V2 receptor (AVP-R2) overexpressed in CHO-K1 cells (Homo sapiens, UniProt P30518); experiment: Intracellular cAMP release in AVP-R2 CHO-K1 cells (cAMP Hunter eXpress); format: cell-based; details: peptide alone, 30 min at 37°C, chemiluminescent read-out
T1 construct: host or cells: CHO-K1
T1 sequence (P30518 whole entry): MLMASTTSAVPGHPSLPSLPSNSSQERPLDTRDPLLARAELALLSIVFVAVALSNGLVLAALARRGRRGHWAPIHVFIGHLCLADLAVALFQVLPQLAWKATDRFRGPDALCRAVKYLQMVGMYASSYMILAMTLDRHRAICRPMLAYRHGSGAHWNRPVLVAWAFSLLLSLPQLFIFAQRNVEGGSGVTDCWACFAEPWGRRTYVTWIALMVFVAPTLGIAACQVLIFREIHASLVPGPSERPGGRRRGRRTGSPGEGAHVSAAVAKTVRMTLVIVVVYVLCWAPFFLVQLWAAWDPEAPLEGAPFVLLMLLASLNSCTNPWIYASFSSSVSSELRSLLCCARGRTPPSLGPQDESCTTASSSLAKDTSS
Experimental: Changes in intracellular cAMP level in response to agonist stimulation of the GPCR receptor was detected with a chemiluminescent cAMP Hunter eXpress Cat.No: # 95-0150E2CP2M kit from DiscoveRx (www.discoverx.com). A standard curve of cAMP (in duplicate) was included in the same plate and used to report data in nM cAMP. […] The values of cAMP were presented as relative light units (RLU) or they were calculated in nM from the standard curve.

[2] = tested on: Wistar rats; experiment: Urine, sodium and potassium outflow after iv injection in rats (metabolic cages, 5 h); format: in vivo; details: Wistar rat
Experimental: Experiments were performed using 8-week-old Wistar rats (225-250g) purchased from Charles River laboratories (St. Constant, QC, CA). Rats were housed in a standard temperature and light condition with access to water and irradiated standard rodent diet (Harlan Laboratories Inc., IN, USA) ad libitum. At the end of experiments, rats were anaesthetized with sodium pentobarbital (5mg/100 g body wt. i.p.; 20 𝜇mol/100 g body wt.) and blood samples (2mL, EDTA) were collected. Rats were euthanized by cervical decapitation.
Peptides were dissolved at the desired concentration in 0.3 mL of the vehicle and administered as a single bolus in the tail vein.
Both antagonists (OTA, V2A) were administered to rats at the concentration of 10 μmol/kg under normal conditions (0.3 mL iv injection) and with blood volume expansion (5 mL iv injection). Rats (n = 24 per condition) received combination treatment in random order separated by a 2–3 day interval. For both series of experiments, rats were placed in metabolic cages for a period of 5 hours to collect urine for the determination of sodium and potassium levels. Metabolic cages were kept in a bright and quiet room and rats were deprived of food and water during this period.
The concentrations of excreted sodium and potassium were determined by flame spectrometry (iCE 3000 series AA spectrometer; Thermo Fisher Scientific, Cambridge, UK).

EC50 [1]: 1100 nM
Molecule: CC[C@H](C)[C@@H]1NC(=O)[C@H](Cc2ccc(O)cc2)NC(=O)[C@@H](N)CSSC[C@@H](C(=O)N2CCC[C@H]2C(=O)N[C@@H](CC(C)C)C(=O)NCC(=O)NCC(=O)N[C@@H](CCCCN)C(=O)N[C@@H](CCCNC(=N)N)C(=O)O)NC(=O)[C@H](CC(N)=O)NC(=O)[C@H](CCC(N)=O)NC1=O [OT-GKR] (HELM PEPTIDE1{C.Y.I.Q.N.C.P.L.G.G.K.R}$PEPTIDE1,PEPTIDE1,1:R3-6:R3$$$V2.0)

Molecule: [d(CH2)5, Tyr(Me)2, Thr4, Orn8, Tyr-NH29]-vasotocin [OTA]
effect of antagonist on OT-stimulated diuresis ([2]; OTA co-administered with OT, normal volume and blood volume expansion (5 mL)): inhibited OT-stimulated diuresis to control and BVE levels

Molecule: [d(CH2)5, D-Ile2, Ile4, Tyr-NH29]-AVP [V2A]
effect of antagonist alone on diuresis ([2]; V2A alone iv, normal volume and blood volume expansion): significant diuresis
